Results from patent publication US20080318954A1, “Compounds” (Cyclacel Limited, priority 2004, published 2008).

Tests used:
Type in all cases: biochemical
[1] = target: T1, NEK6 (Homo sapiens, UniProt Q9HC98); test: Protein kinase panel selectivity screen, NEK6; settings: 1 μM compound; [ATP] 50 μM
T1 construct: Dundee University (screening panel)
Protocol: (§1) The names of the 29 kinases comprising the selectivity screen, as well as the ATP concentrations used in each kinase case, are given in Table 5. The kinase assays were carried out as described previously.
(§2) Compound XIV at a concentration of 1 μM was screened in the 29-kinase panel (Dundee University) and the results are shown bellow in Table 6.

[2] = target: T2, MAPKAP-K2 (Homo sapiens, UniProt P49137); test: Protein kinase panel selectivity screen, MAPKAP-K2; settings: 1 μM compound; [ATP] 20 μM
T2 construct: Dundee University (panel)
T2 sequence (P49137 whole entry, species assumed): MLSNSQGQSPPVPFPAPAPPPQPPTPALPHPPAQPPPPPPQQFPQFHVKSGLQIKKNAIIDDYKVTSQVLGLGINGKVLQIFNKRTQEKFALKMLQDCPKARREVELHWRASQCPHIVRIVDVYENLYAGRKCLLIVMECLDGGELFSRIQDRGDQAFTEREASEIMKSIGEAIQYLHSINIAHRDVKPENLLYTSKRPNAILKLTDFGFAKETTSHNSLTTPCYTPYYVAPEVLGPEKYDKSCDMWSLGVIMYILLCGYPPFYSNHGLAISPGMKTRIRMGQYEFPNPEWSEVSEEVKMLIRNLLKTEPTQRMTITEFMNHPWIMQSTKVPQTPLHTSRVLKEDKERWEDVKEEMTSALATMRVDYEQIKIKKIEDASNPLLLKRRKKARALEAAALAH
Protocol: as §1, §2

[3] = test system: PKA; test: Protein kinase panel selectivity screen, PKA; settings: 1 μM compound; [ATP] 5 μM
Protocol: as §1, §2

[4] = target: T3, CDK4/cyclin D1 (Homo sapiens, UniProt P11802); test: CDK/cyclin kinase assay, CDK4/cyclin D1
T3 construct: His6 (N); made in house; host or cells: CDK4: Sf9 insect cells (baculovirus); Cyclin D1: E. coli, Sf9
T3 sequence (P11802 whole entry): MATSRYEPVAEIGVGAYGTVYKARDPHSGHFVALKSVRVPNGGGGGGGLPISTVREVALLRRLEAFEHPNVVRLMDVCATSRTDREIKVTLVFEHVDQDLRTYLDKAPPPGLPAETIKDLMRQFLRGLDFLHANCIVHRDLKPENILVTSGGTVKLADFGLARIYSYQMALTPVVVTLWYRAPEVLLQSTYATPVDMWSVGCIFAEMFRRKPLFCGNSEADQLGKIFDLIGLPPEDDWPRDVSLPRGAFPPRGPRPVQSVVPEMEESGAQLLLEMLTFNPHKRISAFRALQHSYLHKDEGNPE
T3 sequence (P24385 whole entry partner): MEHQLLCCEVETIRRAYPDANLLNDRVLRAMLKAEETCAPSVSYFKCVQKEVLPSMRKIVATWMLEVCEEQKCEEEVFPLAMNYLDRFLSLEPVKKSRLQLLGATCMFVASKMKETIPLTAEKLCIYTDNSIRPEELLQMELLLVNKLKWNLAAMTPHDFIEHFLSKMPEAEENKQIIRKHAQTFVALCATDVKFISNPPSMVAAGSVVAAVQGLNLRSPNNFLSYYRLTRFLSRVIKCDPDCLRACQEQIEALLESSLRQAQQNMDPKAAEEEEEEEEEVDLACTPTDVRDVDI
Protocol: (§3) CDK4/cyclin D1, CDK1/cyclin B, CDK2/cyclin E, CDK2/cyclin A, CDK9/cyclin T1 and CDK7/cyclin H, all with a His6 tag on the N-terminus, were expressed in Sf9 insect cells using an appropriate baculovirus construct. Sf9 culture (1.6×10^6 cells/mL) was infected (MOI of 3) for two days. The cells were harvested by low speed centrifugation and the protein was purified from the insect cell pellet by metal affinity chromatography. In short: the insect cell pellet was lysed in Buffer A (10 mM Tris-HCl pH 8.0, 150 mM NaCl, 0.02% NP-40, 5 mM β-mercaptoethanol, 20 mM NaF, 1 mM Na3VO4, and Sigma Protease Inhibitor Cocktail) by sonication. The soluble fraction was cleared by centrifugation and loaded onto Ni-NTA-Agarose (Qiagen). Non-bound protein was washed off with 300 mM NaCl, 5-15 mM imidazole in buffer A and the bound protein was eluted with buffer A supplemented with 250 mM imidazole. The purified proteins were extensively dialyzed against storage buffer (20 mM HEPES pH 7.4, 50 mM NaCl, 2 mM DTT, 1 mM EDTA, 1 mM EGTA, 0.02% NP-40, 10% v/v glycerol) and stored at −70° C.
(§4) Compounds were investigated for their CDK2/cyclin E, CDK2/cyclin A, CDK1/cyclin B, and CDK4/cyclin D1 inhibitory activity. His6-tagged recombinant human cyclin-dependent kinases CDK1/cyclin B1, CDK2/cyclin E, CDK2/cyclin A, and CDK4 were expressed in sf9 insect cells using a baculovirus expression system. Recombinant cyclin D1 was expressed in E. coli. Proteins were purified by metal chelate affinity chromatography to greater than 90% homogeneity. Kinase assays were performed in 96-well plates using recombinant CDK/cyclins. Assays were performed in assay buffer (25 mM β-glycerophosphate, 20 mM MOPS, 5 mM EGTA, 1 mM DTT, 1 mM […], pH 7.4), into which were added 2-4 μg of active enzyme with appropriate substrates (purified histone H1 for CDK1 and CDK2, recombinant GST-retinoblastoma protein (residues 773-928) for CDK4). The reaction was initiated by addition of Mg/ATP mix (15 mM MgCl2+100 μM ATP with 30-50 kBq per well of [γ-^32P]-ATP) and mixtures incubated for 10-45 min, as required, at 30° C. Reactions were stopped on ice, followed by filtration through p81 or GF/C filterplates (for CDK4) (Whatman Polyfiltronics, Kent, UK). After washing 3 times with 75 mM aq orthophosphoric acid, plates were dried, scintillant added and incorporated radioactivity measured in a scintillation counter (TopCount, Packard Instruments, Pangbourne, Berks, UK). Compounds for kinase assays were made up as 10 mM stocks in DMSO and diluted into 10% DMSO in assay buffer. Data was analysed using curve-fitting software (GraphPad Prism version 3.00 for Windows, GraphPad Software, San Diego Calif. USA) to determine IC50 values (concentration of test compound which inhibits kinase activity by 50%).

[5] = target: T4, SGK (Homo sapiens, UniProt O00141); test: Protein kinase panel selectivity screen, SGK; settings: 1 μM compound; [ATP] 20 μM
T4 construct: Dundee University (panel)
T4 sequence (O00141 whole entry, species assumed): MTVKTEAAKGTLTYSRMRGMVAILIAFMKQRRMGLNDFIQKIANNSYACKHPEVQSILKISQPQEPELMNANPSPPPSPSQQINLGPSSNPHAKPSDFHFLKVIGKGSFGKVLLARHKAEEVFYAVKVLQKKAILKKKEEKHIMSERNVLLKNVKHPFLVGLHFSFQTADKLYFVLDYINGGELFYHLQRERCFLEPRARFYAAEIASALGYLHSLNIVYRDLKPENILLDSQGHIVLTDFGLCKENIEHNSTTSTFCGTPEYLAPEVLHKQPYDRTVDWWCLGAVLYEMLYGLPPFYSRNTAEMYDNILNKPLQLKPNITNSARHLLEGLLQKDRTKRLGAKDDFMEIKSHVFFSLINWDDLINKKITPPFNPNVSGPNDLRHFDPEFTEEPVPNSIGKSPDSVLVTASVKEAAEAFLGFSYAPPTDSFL
Protocol: as §1, §2

[6] = test system: AMPK; test: Protein kinase panel selectivity screen, AMPK; settings: 1 μM compound; [ATP] 50 μM
Protocol: as §1, §2

[7] = target: T5, CSK (Homo sapiens, UniProt P41240); test: Protein kinase panel selectivity screen, CSK; settings: 1 μM compound; [ATP] 20 μM
T5 construct: Dundee University (screening panel)
T5 sequence (P41240 whole entry, species assumed): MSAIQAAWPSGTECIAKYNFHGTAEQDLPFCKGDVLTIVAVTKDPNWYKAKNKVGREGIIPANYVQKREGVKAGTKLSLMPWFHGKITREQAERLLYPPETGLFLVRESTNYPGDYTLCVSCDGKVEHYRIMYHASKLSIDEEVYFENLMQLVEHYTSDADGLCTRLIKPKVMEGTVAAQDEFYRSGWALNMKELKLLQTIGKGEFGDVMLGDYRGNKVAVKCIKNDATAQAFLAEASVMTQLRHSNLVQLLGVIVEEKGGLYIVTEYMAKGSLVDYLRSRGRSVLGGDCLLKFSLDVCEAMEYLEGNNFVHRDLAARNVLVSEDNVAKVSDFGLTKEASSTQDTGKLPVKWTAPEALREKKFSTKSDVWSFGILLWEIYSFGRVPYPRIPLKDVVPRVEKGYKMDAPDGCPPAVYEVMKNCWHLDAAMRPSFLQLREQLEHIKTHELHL
Protocol: as §1, §2

[8] = target: T6, GSK3b (Homo sapiens, UniProt P49841); test: Protein kinase panel selectivity screen, GSK3b; settings: 1 μM compound
T6 construct: Dundee University (panel)
T6 sequence (P49841 whole entry, species assumed): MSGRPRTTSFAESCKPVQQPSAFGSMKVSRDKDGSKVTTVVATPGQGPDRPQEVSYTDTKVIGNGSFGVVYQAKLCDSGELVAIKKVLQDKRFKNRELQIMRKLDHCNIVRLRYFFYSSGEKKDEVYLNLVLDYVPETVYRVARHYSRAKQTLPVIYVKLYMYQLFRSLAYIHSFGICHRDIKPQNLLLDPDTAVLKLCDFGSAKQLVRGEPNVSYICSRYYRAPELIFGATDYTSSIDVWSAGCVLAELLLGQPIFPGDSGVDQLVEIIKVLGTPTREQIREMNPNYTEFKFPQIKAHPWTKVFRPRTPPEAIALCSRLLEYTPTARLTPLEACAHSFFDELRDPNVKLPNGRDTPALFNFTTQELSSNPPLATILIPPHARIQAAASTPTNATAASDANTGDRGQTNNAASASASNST
Protocol: as §1, §2

[9] = target: T7, MAPK2/ERK2 (Homo sapiens, UniProt P28482); test: Protein kinase panel selectivity screen, MAPK2/ERK2; settings: 1 μM compound; [ATP] 50 μM
T7 construct: Dundee University (panel)
T7 sequence (P28482 whole entry): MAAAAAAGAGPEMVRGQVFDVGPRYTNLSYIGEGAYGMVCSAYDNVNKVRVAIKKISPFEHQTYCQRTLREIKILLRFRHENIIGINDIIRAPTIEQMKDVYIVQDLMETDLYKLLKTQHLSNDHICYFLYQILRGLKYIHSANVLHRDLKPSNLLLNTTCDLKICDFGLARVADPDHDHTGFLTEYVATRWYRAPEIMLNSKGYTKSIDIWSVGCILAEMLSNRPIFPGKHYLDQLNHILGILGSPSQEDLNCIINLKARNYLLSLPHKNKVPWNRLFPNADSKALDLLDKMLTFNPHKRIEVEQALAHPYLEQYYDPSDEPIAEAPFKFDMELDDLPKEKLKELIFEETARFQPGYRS
Protocol: as §1, §2

[10] = target: T8, PRAK (Homo sapiens, UniProt Q8IW41); test: Protein kinase panel selectivity screen, PRAK; settings: 1 μM compound; [ATP] 20 μM
T8 construct: Dundee University (panel)
T8 sequence (Q8IW41 whole entry, species assumed): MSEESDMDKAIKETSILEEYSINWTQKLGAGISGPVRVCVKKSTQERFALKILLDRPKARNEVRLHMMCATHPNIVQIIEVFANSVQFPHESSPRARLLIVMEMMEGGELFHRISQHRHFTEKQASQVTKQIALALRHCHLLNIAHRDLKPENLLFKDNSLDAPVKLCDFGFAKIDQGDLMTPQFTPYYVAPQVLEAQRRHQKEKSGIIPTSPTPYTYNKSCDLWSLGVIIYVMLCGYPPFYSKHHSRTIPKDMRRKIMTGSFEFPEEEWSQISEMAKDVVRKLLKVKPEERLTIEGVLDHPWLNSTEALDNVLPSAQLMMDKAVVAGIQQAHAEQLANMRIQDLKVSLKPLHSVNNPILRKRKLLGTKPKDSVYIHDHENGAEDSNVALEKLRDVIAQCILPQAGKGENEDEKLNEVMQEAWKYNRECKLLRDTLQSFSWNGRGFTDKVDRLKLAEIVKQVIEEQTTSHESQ
Protocol: as §1, §2

[11] = target: T9, CDK2/cyclin E (Homo sapiens, UniProt P24941); test: CDK/cyclin kinase assay, CDK2/cyclin E
T9 construct: His6 (N); made in house; host or cells: Sf9 insect cells (baculovirus)
Protocol: as §3, §4

[12] = target: T10, CDK2/cyclin A (Homo sapiens, UniProt P24941); test: CDK/cyclin kinase assay, CDK2/cyclin A
T10 construct: His6 (N); made in house; host or cells: Sf9 insect cells (baculovirus)
Protocol: as §3, §4

T1 sequence (Q9HC98 whole entry, species assumed): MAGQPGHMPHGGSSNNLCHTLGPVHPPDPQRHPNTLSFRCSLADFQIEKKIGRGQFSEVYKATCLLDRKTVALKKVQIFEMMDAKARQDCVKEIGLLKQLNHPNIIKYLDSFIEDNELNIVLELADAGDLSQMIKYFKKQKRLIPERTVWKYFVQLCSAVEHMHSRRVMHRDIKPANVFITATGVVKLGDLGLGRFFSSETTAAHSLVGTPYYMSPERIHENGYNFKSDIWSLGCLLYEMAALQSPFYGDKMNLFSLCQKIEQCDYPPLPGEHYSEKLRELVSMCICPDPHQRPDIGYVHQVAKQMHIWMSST

Clc1ccc(Nc2nccc(-c3nccs3)n2)cn1 [Compound XIV, (6-Chloro-pyridin-3-yl)-(4-thiazol-2-yl-pyrimidin-2-yl)-amine]
activity at 1 µM [1]: 87 ± 6% | activity at 1 µM [2]: 86 ± 7% | % Activity PKA [3]: 76 ± 3% | Ki [4]: > 100 µM | Fold selectivity for GSK3 over CDK4/cyclin D1 ([4]; from Ki): >6,250 fold | IC50 ([4]; read-out: Kinase inhibition IC50 CDK4/D1): > 100 µM | activity at 1 µM [5]: 79 ± 4% | % Activity AMPK [6]: 82 ± 5% | activity at 1 µM [7]: 93 ± 8% | Selectivity in the 29-kinase panel [8]: highly selective for GSK3 | activity at 1 µM ([8]; [ATP] 5 μM): 13 ± 5% | activity at 1 µM [9]: 84 ± 8% | activity at 1 µM [10]: 83 ± 3% | Ki [11]: 5.5 µM | Selectivity IC50 (CDK2/E)/IC50 (GSK3β) [11]: 63 | Fold selectivity for GSK3 over CDK2/cyclin E ([11]; from Ki): 345 fold | IC50 ([11]; read-out: Kinase inhibition IC50 CDK2/E): 11 µM | Ki [12]: > 50 µM | Fold selectivity for GSK3 over CDK2/cyclin A ([12]; from Ki): >3,125 fold | IC50 ([12]; read-out: Kinase inhibition IC50 CDK2/A): > 50 µM
